Laboratory results from paper PMC10971832, “New Phenol Derivatives from the Haima Cold Seep-Derived Fungus Aspergillus subversicolor CYH-17” (Marine Drugs, 2024).
Converted amounts (≈) assume the structure as drawn.

Columns and labels:
[1] = DPPH radical scavenging assay (antioxidant activity); conditions: Table S33, positive control ascorbic acid
Text: The procedures of the DPPH radical scavenging test were the same as Zhong. Ascorbic acid was used as the positive control.

[2] = system: Enterococcus faecalis ATCC 29212; experiment: Antibacterial assay (MIC), E. faecalis; format: cell-based; conditions: ATCC29212, Table S32, positive control ciprofloxacin
Text: (§1) The bacteria Vibrio alginolyticus XSBZ14, Enterococcus faecalis ATCC 29212, Acinetobacter baumannii ATCC 19606, Escherichia coli ATCC 25922, Bacillus subtilis BS01, Klebsiella pneumoniae ATCC 13883, Exiguobacterium profundum Staphylococcus aureus ATCC 29213 and MRSA 107352 were used to measure antibacterial activity. The procedures of the antibacterial test were the same as Zhang. Ciprofloxacin was used as the positive control.

[3] = system: Acinetobacter baumannii ATCC 19606; experiment: Antibacterial assay (MIC), A. baumannii; format: cell-based; conditions: ATCC19606, Table S32, positive control ciprofloxacin
Text: as §1

MRSA 107352 = experiment: Antibacterial assay (MIC), MRSA; format: cell-based; conditions: Staphylococcus aureus, Table S32, positive control ciprofloxacin
Text: as §1

[4] = system: Exiguobacterium profundum; experiment: Antibacterial assay (MIC), E. profundum; format: cell-based; conditions: Table S32, positive control ciprofloxacin
Text: as §1

Bacillus subtilis BS01 = experiment: Antibacterial assay (MIC), B. subtilis; format: cell-based; conditions: Table S32, positive control ciprofloxacin
Text: as §1

[5] = system: Staphylococcus aureus ATCC 29213; experiment: Antibacterial assay (MIC), S. aureus; format: cell-based; conditions: ATCC29213, Table S32, positive control ciprofloxacin
Text: as §1

[6] = system: six bacteria (B. subtilis, E. profundum, E. faecalis, S. aureus, MRSA, A. baumannii); experiment: Antibacterial assay, summary over the sensitive bacteria; format: cell-based
Text: as §1

IC50 [1] [µM]	MIC [2] [µM]	MIC [3] [µM]	MIC (MRSA 107352) [µM]	MIC [4] [µM]	MIC (Bacillus subtilis BS01) [µM]	MIC [5] [µM]	MIC ([6]; range over six inhibited bacteria) [µM]	SMILES	inhibitory activity against bacteria (in words) ([6]; five Gram-positive bacteria (B. subtilis, E. profundum, E. faecalis, S. aureus and MRSA) and one Gram-negative bacterium (A. baumannii))
–	0.8 (≈ 0.265 µg/mL)	0.4 (≈ 0.133 µg/mL)	1.6 (≈ 0.53 µg/mL)	0.2 (≈ 0.0663 µg/mL)	0.03 (≈ 0.00994 µg/mL)	0.8 (≈ 0.265 µg/mL)	–	O=C(O)c1cn(C2CC2)c2cc(N3CCNCC3)c(F)cc2c1=O [ciprofloxacin, Ciprofloxacin, reference compound]	–
–	> 200	> 200	> 200	100 (≈ 26 µg/mL)	> 200	> 200	–	COc1c(O)cc(C)cc1Oc1cc(C)cc(O)c1 [Compound 11, 2-methoxyl cordyol C]	–

Continued, molecule first:

SMILES	IC50 [1] [µM]	MIC [2] [µM]	MIC [3] [µM]	MIC (MRSA 107352) [µM]	MIC [4] [µM]	MIC (Bacillus subtilis BS01) [µM]	MIC [5] [µM]	MIC ([6]; range over six inhibited bacteria) [µM]	inhibitory activity against bacteria (in words) ([6]; five Gram-positive bacteria (B. subtilis, E. profundum, E. faecalis, S. aureus and MRSA) and one Gram-negative bacterium (A. baumannii))
O=C1O[C@H]([C@@H](O)CO)C(O)=C1O [Ascorbic acid, reference compound]	16.7 ± 0.7	–	–	–	–	–	–	–	–
Cc1cc(O)cc2oc3cc(O)cc(C)c3c12 [Compound 10, 3,7-dihydroxy-1,9-dimethyldibenzofuran]	48.9 ± 9.8	25 (≈ 5.71 µg/mL)	50 (≈ 11.4 µg/mL)	12.5 (≈ 2.85 µg/mL)	25 (≈ 5.71 µg/mL)	0.1 (≈ 0.0228 µg/mL)	25 (≈ 5.71 µg/mL)	0.1 to 50 (≈ 0.0228 to 11.4 µg/mL)	displayed inhibitory activity
CCC(C)C=C(C)C=CC(=O)Cc1cc(O)c(C)c(O)c1C(=O)O (stereo not shown) [Compound 1, subversin A]	–	> 200	> 200	> 200	100 (≈ 33.2 µg/mL)	> 200	> 200	–	–
